Measurements taken from patent US20110014226A1, “HIGH […] I[…]” (priority 2008, published 2011).

Tests used:
D5 binding to 5-helix = experiment: D5 Competitive Binding Assay (DCBA) high throughput screen with F19 counter-screen; design: species or system HIV-1; details: among the compounds listed in Table 2; DCBA primary screen vs F19 counter-screen
Excerpt: An in vitro binding assay was developed using D5 IgG conjugated to europium cryptate (Eu-D5) and a biotinylated gp41 mimetic molecule that presents the hydrophobic pocket in a stabilized structural context (termed 5-helix (or 5H) peptide). The assay readout is based on a fluorescence resonance energy transfer (FRET) format. Biotin-5-helix binds to a streptavidin-conjugated allophycocyanin (APC) substrate to form a 5H-SA-APC complex. When Eu-D5 binds to the hydrophobic pocket of biotin-5H, it brings the Eu into close proximity with the APC substrate to allow FRET from Eu to APC. When the reaction system is excited at a wavelength of 340 nm, the Eu signals at 620 nm. If the Eu is in close proximity to the APC, it excites the APC which results in long-lived emissions at 665 nm. Introducing a time delay (e.g., ˜100 μseconds) between the system excitation and fluorescence measurement allows the FRET signals to be cleared of non-specific short-lived emissions (“time-resolved FRET”). The resulting specific FRET signal indicative of the amount of Eu-D5 bound to biotin-5H can be quantified by the ratio of fluorescence [counts at 665 nm/fluorescence counts at 620 nm]×10,000. […]
Briefly, the assay was performed in the following manner. […] The plate was then read using the Fusion Universal Microplate Analyzer (Packard Bioscience). […]

ccIZN17 = experiment: ELISA of mouse antisera after immunization, coated with ccIZN17; type: in vivo; details: balb/c mice, 25 μg conjugate intramuscularly three times at 2-week intervals, Merck aluminum alum + IMO-2055; reciprocal endpoint titers by ELISA
5-helix = details: in vivo; for Post-dose 3 geometric mean antibody titer (GMT) elicited versus 5-helix: mouse
[1] = ELISA of mouse antisera after immunization, coated with biotinylated Compound 2.58; type: in vivo; details: balb/c mice, 25 μg conjugate intramuscularly three times at 2-week intervals, Merck aluminum alum + IMO-2055; reciprocal endpoint titers by ELISA
[2] = ELISA of mouse antisera after immunization with hapten-CRM197 conjugates, coated with biotinylated Compound 2.45; type: in vivo; details: balb/c mice, 25 μg conjugate intramuscularly three times at 2-week intervals, Merck aluminum alum + IMO-2055; reciprocal endpoint titers by ELISA
ccIZN36 = experiment: ELISA of mouse antisera after immunization, coated with ccIZN36; type: in vivo; details: balb/c mice, 25 μg conjugate intramuscularly three times at 2-week intervals, Merck aluminum alum + IMO-2055; reciprocal endpoint titers by ELISA
CRM197 = details: mouse, in vivo

Structure (SMILES)	specific inhibition of D5 binding relative to F19 inhibition (D5 binding to 5-helix)	Post-dose 3 geometric mean antibody titer (GMT) elicited versus ccIZN17 (ccIZN17)	binding activity of individual mouse sera in the 5H ELISA (5-helix)	Post-dose 3 geometric mean antibody titer (GMT) elicited versus 5-helix (5-helix)	Post-dose 3 geometric mean antibody titer (GMT) elicited versus Compound 2.58 [1]	Post-dose 3 geometric mean antibody titer (GMT) elicited versus Compound 2.45 [2]	Post-dose 3 geometric mean antibody titer (GMT) elicited versus ccIZN36 (ccIZN36)	Post-dose 3 geometric mean antibody titer (GMT) elicited versus CRM197 (CRM197)
CCNC(=O)[C@]1(Cc2ccccc2)CCCN(C(=O)[C@@H](Cc2ccc3ccccc3c2)NC(=O)N2CC(C)NC(C)C2)C1 (stereo partly drawn) [Compound 1.1]	the best in terms of specific inhibition of D5 binding relative to F19 inhibition							
CCNC(=O)[C@]1(Cc2ccccc2)CCCN(C(=O)[C@@H](Cc2ccc3ccccc3c2)NC(=O)N2CCNCC2)C1 [Compound 2.45]		<100	more pronounced binding activity	400	>1,600,000	>1,600,000	<100	1,600
CCNC(=O)[C@]1(Cc2ccccc2)CCCN(C(=O)[C@@H](Cc2ccc(Cl)c(Cl)c2)NC(=O)N[C@@H]2CCCNC2)C1 [Compound 2.58]		200	more pronounced binding activity	200	713,155	>1,600,000	<100	400
